The target of the test is T1, human glucagon receptor (hGCGR) (Homo sapiens, UniProt P47871).
T1 construct: host or cells: HEK293
The test can be described thus: HTRF second messenger cAMP response experiment (called cell viability test) in HEK293 cells with glucagon peptide segment. The format is cell-based. The settings on record: for inhibitory activity of glucagon receptor (in words, from cAMP response curves): FIG. 5 / FIG. 14. The protocol:
In order to determine the antagonistic activity of the compound A on the glucagon receptor in the above embodiments, a cell viability test is carried out. The specific implementation is as follows.
A known human glucagon receptor (hGCGR) antagonist drug is selected as a positive control, and the compound A in the above embodiments, a glucagon peptide segment (that is, human full-length glucagon), and human embryonic kidney cells containing target receptor molecules are mixed. The glucagon peptide segment binds to hGCGR to activate the hGCGR signaling pathway and release the second messenger cAMP. The compound A acts as an antagonist to inhibit the activity of hGCGR.
In an exemplary embodiment, a known hGCGR antagonist drug (L-168,049) is selected as a positive control. […] In addition, in view of the human glucagon receptor on the cell membrane of human embryonic kidney cells HEK293, HEK293 is used to test the drug activity of the human glucagon antagonist. In this embodiment, different concentrations of compound A of the present disclosure and the positive control are respectively mixed with glucagon peptide segments and HEK293 cells, the second messenger cAMP is detected through homogeneous time resolved fluorescence (HTRF), and a half maximal inhibitory concentration value of each compound is calculated according to the intensity value of HTRF.
In an exemplary embodiment, the activity of the compound A is tested using the HTRF technique. Specifically, after activation of the glucagon receptor by the glucagon peptide segment, the second messenger cAMP is released from the glucagon receptor cells, the second messenger cAMP may be detected by HTRF, and the half maximal inhibitory concentration (IC50) of the tested compound may be calculated according to the fluorescence intensity.
In an exemplary embodiment, 11 identical concentration gradients are set for the compounds A1 and A2 respectively. The activities of the compounds A1 and A2 are determined by the HTRF second messenger cAMP response experiment in triplicate.
Step S910. Select an antagonist drug of hGCGR as a positive control, and mix each target drug small molecule, a glucagon peptide segment, and human embryonic kidney cells containing the target receptor molecule. The glucagon peptide segment binds to hGCGR to activate the hGCGR signaling pathway and release the second messenger cAMP. The target drug molecule acts as an antagonist to inhibit the activity of hGCGR.
In an exemplary embodiment, an antagonist drug (such as L-168,049) of hGCGR is selected as a positive control. In addition, in view of the human glucagon receptor on the cell membrane of human embryonic kidney cells (such as HEK293), HEK293 may be used to test the drug activity of the human glucagon antagonist. The target drug small molecule, the glucagon peptide segment, and the HEK293 cells containing the target receptor molecule are mixed. The glucagon peptide segment is used to bind to hGCGR to activate the hGCGR signaling pathway and promote the release of the second messenger cAMP. The target drug molecule acts as an antagonist to inhibit the activity of hGCGR.
Step S920. Detect the second messenger cAMP through HTRF, and determine a half maximal inhibitory concentration value of each target drug small molecule according to an intensity value of HTRF.
In an exemplary embodiment, the activity of each target drug small molecule (such as 30 target drug small molecules shown in Table 2) is tested by using the HTRF technique. Specifically, after activation of the glucagon receptor by the glucagon peptide segment, the second messenger cAMP is released from the glucagon receptor cells, the second messenger cAMP may be detected by HTRF, and the half maximal inhibitory concentration (IC50) of the drug molecule may be calculated according to the fluorescence intensity. […]
For orientation: Time-resolved FRET reads energy transfer from a long-lived donor to a nearby acceptor.

The mark [1] stands for this setting: concentration gradient LogM −5, HEK293 cells, glucagon peptide segment, HTRF cAMP, triplicate columns.
Where [2] appears, read: concentration gradient LogM −6.908485, HEK293 cells, glucagon peptide segment, HTRF cAMP, triplicate columns.
Where [3] appears, read: concentration gradient LogM −7.862728, HEK293 cells, glucagon peptide segment, HTRF cAMP, triplicate columns.
Where [4] appears, read: concentration gradient LogM −7.385606, HEK293 cells, glucagon peptide segment, HTRF cAMP, triplicate columns.
The mark [5] stands for this setting: concentration gradient LogM −5.954243, HEK293 cells, glucagon peptide segment, HTRF cAMP, triplicate columns.
Where [6] appears, read: concentration gradient LogM −8.339849, HEK293 cells, glucagon peptide segment, HTRF cAMP, triplicate columns.
The mark [7] stands for this setting: concentration gradient LogM −8.81697, HEK293 cells, glucagon peptide segment, HTRF cAMP, triplicate columns.
Where [8] appears, read: concentration gradient LogM −5.477121, HEK293 cells, glucagon peptide segment, HTRF cAMP, triplicate columns.
Setting [9] is: concentration gradient LogM −9.294091, HEK293 cells, glucagon peptide segment, HTRF cAMP, triplicate columns.

The values below come from patent US12441739B2, “Glucagon receptor antagonist and use thereof” (LANZHOU UNIVERSITY, priority 2021, dated 2025).

The term pIC50 denotes the IC50 on a negative log10 scale, so that one unit is a factor of ten.

pIC50: −log10 of the molar value. Values joined by “and” are separate entries in the source; they are usually repeats but may differ in a detail not shown here. Equal values may be shown once. A value given as a limit tells only on which side of the number the result lay.

T1 sequence (P47871 26-477): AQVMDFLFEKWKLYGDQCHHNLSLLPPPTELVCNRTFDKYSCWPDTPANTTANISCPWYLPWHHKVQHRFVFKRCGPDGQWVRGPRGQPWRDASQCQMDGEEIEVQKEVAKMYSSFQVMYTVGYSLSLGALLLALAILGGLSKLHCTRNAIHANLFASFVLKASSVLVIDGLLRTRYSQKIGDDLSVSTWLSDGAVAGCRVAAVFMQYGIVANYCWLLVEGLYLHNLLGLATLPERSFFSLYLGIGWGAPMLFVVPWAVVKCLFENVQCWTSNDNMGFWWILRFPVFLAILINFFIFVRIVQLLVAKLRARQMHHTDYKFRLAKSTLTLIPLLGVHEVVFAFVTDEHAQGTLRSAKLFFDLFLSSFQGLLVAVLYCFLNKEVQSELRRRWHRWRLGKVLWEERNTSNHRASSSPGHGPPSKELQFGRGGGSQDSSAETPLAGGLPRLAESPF

`COc1ccc2cc(C(=O)NCCNc3ccc(C)nn3)[nH]c2c1` [Compound C15] gave a pIC50 of less than 5.00. Further, under setting [1], the Inhibition percentage is 2.451% and 0.02571% and 3.529%. Moreover, the Inhibition percentage under setting [2] was −19.189% and −13.1875% and −18.6652%. Also, under setting [3], the Inhibition percentage is 3.911% and 12.71% and 11.16%.

In turn, `O=C(CNC(=O)NCCCN1CCCCCC1=O)Nc1ccc(F)c(F)c1` [Compound C22] gave a pIC50 of less than 5.00. Besides, under setting [4], the Inhibition percentage is −5.735% and 1.578% and −3.875%.

The compound `CN1C(=O)Cc2cc(S(=O)(=O)CCC(=O)NCCc3ccccc3)ccc21` [Compound C10] gave a pIC50 of less than 5.00. In addition, the Inhibition percentage under setting [5] is 1.692% and 1.059% and 6.715%. Further, the Inhibition percentage under setting [2] was −33.073% and −31.3707% and −29.8413%.

Consider `CC(=O)c1ccccc1NC(=O)c1c(O)c2c3c(sc2[nH]c1=O)C[C@H](C)CC3` [Compound C11], for which the pIC50 was less than 5.00. For the same compound, under setting [1], the Inhibition percentage was 21.46% and 27.01% and 27.99%. The Inhibition percentage under setting [6] was 11.37% and 16.25% and 12.52%.

The compound `CCC(=O)NC(=S)Nc1ccc(NC(=S)NC(=O)c2cccc(OC)c2)cc1` [Compound C9] had a negative logarithm of the IC50 (pIC50) of less than 5.00. The Inhibition percentage under setting [4] was 3.734% and −2.05% and −2.9843%. In addition, the Inhibition percentage under setting [7] was 8.521% and 5.537% and 14.34%.

In turn, `COc1cc(/C=N/NC(=O)CN2C(=O)N[C@H]3NC(=O)N[C@@H]32)cc(OC)c1O` [Compound C12] showed a pIC50 of less than 5.00.

On to `COc1cc(NC(=O)CNC(=O)CNC(=O)c2cccs2)c(OC)cc1Cl` [Compound C26], for which the pIC50 was less than 5.00.

In turn, `NS(=O)(=O)c1ccc(NC(=S)NNC(=S)NC2CCCCC2)cc1` [Compound C1] gave a pIC50 of less than 5.00. The Inhibition percentage under setting [8] was −14.4564% and −9.717% and −14.5956%. Moreover, under setting [6], the Inhibition percentage is 23.36% and 11.78% and 18.98%.

The compound `COc1ccc(C(=O)NC(=S)Nc2ccc(NC(=S)NC(C)=O)cc2)cc1Cl` [Compound C3] had a pIC50 of less than 5.00. Moreover, under setting [2], the Inhibition percentage is 5.05% and 4.705% and 12.02%.

The compound `O=C(COC(=O)CCNC(=O)c1ccsc1)NC(=O)NCc1cccs1` [Compound C20] showed a negative-log IC50 (pIC50) of less than 5.00.

`Cn1c(CNC(=O)c2cccs2)nnc1SCC(=O)Nc1ccc(Cl)cc1` [Compound C29] gave a negative-log IC50 (pIC50) of less than 5.00.

Consider `CCC(=O)NC(=S)Nc1ccc(NC(=S)NC(=O)c2ccccc2OC)cc1` [Compound C8], for which the negative-log IC50 (pIC50) was less than 5.00.

Regarding `O=C(NNC(=S)Nc1ccccc1)[C@H](O)[C@@H](O)C(=O)NNC(=S)Nc1ccccc1` [Compound C7], the pIC50 is less than 5.00. For the same compound, the Inhibition percentage under setting [3] was −25.3779% and −25.5195% and −24.1306%. Also, the Inhibition percentage under setting [9] is −8.847% and −15.2446% and −18.5536%.

In the case of `CSc1cccc(NC(=O)c2c(O)c3sccc3[nH]c2=O)c1` [Compound C14], the pIC50 is 6.37 and the “inhibitory activity of glucagon receptor (in words, from cAMP response curves)” value is given as “have the activity”. For the setting “listed as A2”, the “inhibitory activity of glucagon receptor (in words, from cAMP response curves)” value is on record as “good inhibitory activity of glucagon receptor”. Besides, under setting [1], the Inhibition percentage is 103.2945% and 102.1097% and 103.2736%. The Inhibition percentage (concentration gradient LogM −5, triplicate, HEK293, cAMP HTRF, listed as A2) was 103.2945 percentage and 102.1097 percentage and 103.2736 percentage. Besides, the Inhibition percentage under setting [8] was 106.1285% and 105.9119% and 107.3553%. Moreover, the Inhibition percentage (concentration gradient LogM −5.477121, triplicate, HEK293, cAMP HTRF, listed as A2) is 106.1285 percentage and 105.9119 percentage and 107.3553 percentage. For the same compound, under setting [5], the Inhibition percentage was 84.32% and 92.48% and 91.05%. Further, under “concentration gradient LogM −5.954243, triplicate, HEK293, cAMP HTRF, listed as A2”, the Inhibition percentage was 84.32 percentage and 92.48 percentage and 91.05 percentage. Further, under “concentration gradient LogM −6.431364, HEK293 cells, glucagon peptide segment, HTRF cAMP, triplicate columns”, the Inhibition percentage is 40.16% and 62.74% and 47.65%. Besides, the Inhibition percentage (concentration gradient LogM −6.431364, triplicate, HEK293, cAMP HTRF, listed as A2) was 40.16 percentage and 62.74 percentage and 47.65 percentage.

Take `CS(=O)(=O)NCCOc1ccc(S(=O)(=O)NCCOc2ccccc2)cc1` [Compound C28]: the pIC50 is less than 5.00.

Compound `O=C(CSc1nc2ccccc2[nH]1)NC(=O)Nc1ccc2c(c1)OCO2` [Compound C21] gave a pIC50 of less than 5.00.

In turn, `CNC(=O)NC(=O)CSc1nc2cc(-c3ccc(F)cc3)sc2c(=O)n1N` [Compound C30] gave a pIC50 of less than 5.00.

Turning to `O=C(CCNC(=O)c1ccccc1)NCc1cccc(NC(=O)C2CC2)c1` [Compound C16], the pIC50 was less than 5.00. The Inhibition percentage under setting [2] was −5.221% and −7.477% and −6.358%. Moreover, under setting [7], the Inhibition percentage was −7.7562% and −6.836% and −15.6271%.

With `CC(C)(C)NC(=O)NC(=O)CSc1nc(-c2cccs2)c(-c2cccs2)[nH]1` [Compound C25], the pIC50 was less than 5.00.

Regarding `O=C(NCCCCCCNC(=O)NCc1cccnc1)NCc1cccnc1` [Compound C5], the pIC50 was less than 5.00.

The compound `O=C(COC(=O)CCNS(=O)(=O)c1ccc(Cl)cc1)NC(=O)NCc1ccco1` [Compound C18] showed a pIC50 of less than 5.00. In addition, the Inhibition percentage under setting [5] is −6.593% and −12.6979% and −7.936%.

In the case of `Cc1ccc(-c2csc(NC(=O)c3ccc4c(c3)NC(=O)CS4)n2)c(C)c1` [Compound C23], under setting [1], the Inhibition percentage was 75.66% and 75.14% and 57.58%.

For `O=S(=O)(Nc1ccc(Cl)cc1)c1ccc(NC(=S)Nc2ccccc2)cc1` [Compound C4], the negative-log IC50 (pIC50) is less than 5.00.

`O=C(CCCCC(=O)NNC(=S)Nc1ccc(Br)cc1)NNC(=S)Nc1ccc(Br)cc1` [Compound C6] showed a pIC50 of less than 5.00. For the same compound, the Inhibition percentage under setting [3] was −28.7792% and −19.4453% and −24.9236%.

`O=S(=O)(NCCc1ccccc1)c1ccc(NC(=S)Nc2ccccc2)cc1` [Compound C2] showed a pIC50 of less than 5.00. In addition, the Inhibition percentage under setting [9] is 1.325% and 0.8006% and 5.407%.
